Where two headings read alike, the source gives them in different places.

In data set [1] the test system is PMA-stimulated whole blood. Here is the method:
Blood was freshly drawn (100-300 μL, by jugular puncture) from MPO^−/− or control MPO^+/+ mice. Blood was stored for up to 6 h in heparinized tubes at room temperature. Ex vivo BLI experiments using whole blood were performed in black-coated 96-well plates. Briefly, 1 μL of blood was diluted in 200 μL of MEBSS supplemented with luminol (100 μM), in the absence or presence of increasing concentrations of 4-ABAFT (0-6.6 mM), L-NMMA (1 mM) or DPI (10 μM). Samples were imaged (exposure time, 60 sec; binning, 4; FOV, 10 cm; open filter) before (t=0) and at the indicated time points after stimulation with PMA (5 μM) or vehicle (DMSO, 1 μL). Photon fluxes±s.e.m. were plotted as a function of time post PMA (min) or concentration of inhibitor.
Luminol-oxidation can be visualized by bioluminescence imaging and is dependent on MPO activity in vitro. Luminol-dependent BL of stimulated phagocytes and whole blood has been extensively studied using photo-multiplier tube (PMT)-based luminometers. To determine whether BLI could be similarly used to detect oxidant production in biological material, we used a charge-coupled device (CCD)-based bioluminescence imaging system to monitor phagocyte activation in heparinized whole blood (1 μL). Fresh heparinized whole blood (1 μL) was incubated with luminol (100 μM) in MEBSS (200 μL). […] Images show sequential color-coded maps of photon flux superimposed on black & white photographs of the assay plates (FIG. 1b).
It is important to note that metals such as iron are highly abundant in blood, but are confined to specific cellular compartments, i.e., hemoglobin in erythrocytes or cytochromes in mitochondrial membranes. […] At t=0, PMA was added to a final concentration of 5 μM and BL was monitored for 60 min at 7.5 min intervals.
To determine the relative contribution of other ROS to the BL signal induced by luminol in stimulated blood ex vivo, we focused on two enzymatically-catalyzed ROS products, O2.- and NO., generated by the Phox complex and nitric oxide synthase (NOS), respectively, as well as their reaction product, peroxynitrite (ONOO^−). Freshly-drawn blood (1 μL) from an MPO^+/+ mouse was incubated with the NOS inhibitor L-NMMA (1 mM) or the Phox inhibitor DPI (10 μM), respectively, and imaged 20 min after stimulation with PMA (5 μM).

Data set [2] addresses T1, MPO (Homo sapiens, UniProt P05164). In words: Dye stability: absorption spectra after treatment with H2O2 and MPO. In kind it is physicochemical. Also on record: purchased Calbiochem. Conditions: H2O2 and MPO in Tris buffer, 30, 60 and 90 min. The protocol: In these experiments, absorption spectra were collected for Texas Red (TXR) and Infrared Dye 820 (IRD) treated with H2O2 and MPO (5 mU) in Tris buffer solution for 30 min, 60 min and 90 min as indicated. […] In these experiments, absorption spectra were collected (RLU vs nm wavelength) of Texas Red (TXR) and Infrared Dye 820 (IRD) treated with H2O2 and MPO ([…]) in Tris buffer solution for 30 min, 60 min and 90 min as indicated. (FIG. 17). […] (FIG. 18). […] Thus, in vitro NIR bioluminescence can be used to study dye and fluorophore stability under various experimental conditions. […]

The test system of data set [3] is MPO activity. In words: BLI of allergic contact hypersensitivity with topical LGTR or luminol, optical filter sets. In kind it is in vivo, mice. Here is the method: Thirty min later, mice were simultaneously imaged in the IVIS 100 imaging system (FOV, 10 cm; binning, 8; acquisition time, 300 sec; f/stop, 1) using four different optical filter sets in rapid sequence: 1) no filter, 2) <510 nm filter, 3) >590 nm filter, and 4) >650 nm filter (FIG. 22, FIG. 23). The photon flux as a percentage of an open filter was compared for both compounds (FIG. 23).
Briefly, murine anti-DNP IgE (20 μg, 100 μl) was intravenously injected to two C57/B mice.
Administration of luminol derivatives and imaging: Forty-eight hours post DNFB treatment, luminol-glycine Texas Red (LGTR, 1 mM in DMSO, left mouse) or luminol (1 mM In DMSO, right mouse) were applied topically (45 μl per ear) on both left and right ears. Thirty minutes later, mice were simultaneously imaged using the IVIS 100 imaging system (FOV 10 cm; binning, 8; acquisition time. 300 sec; f/stop, 1) using four different optical filler sets: (1) no filter, (2)<510 nm filler, (3)>590 nm filter and (4)>650 nm filter.

A further data set relates to human blood. In words: Ex vivo BLI of LGTR and luminol in human whole blood after PMA stimulation. In kind it is cell-based. Here is the method: For analysis of LGTR in whole blood, human blood was freshly drawn from a volunteer (by venous puncture). Blood was stored for up to 6 h in heparinized tubes at room temperature. Ex vivo BLI experiments using whole blood were performed in black-coated 96-well plates. Briefly, 200 μL of blood was added to the wells. LGTR, luminol, or DMSO ([…] of each) were added to the wells. Samples were imaged (exposure time, 160 sec; binning, 8; FOV, 10 cm; open filter or >590 nm) before (t=0) and at the indicated time points after stimulation with PMA (5 μM) or vehicle (ethanol, 1 μL). Photon fluxes±s.e.m. were plotted as a function of time post PMA (min) (FIG. 19). […] In addition, to isolate the buffy coat (white cells), whole blood was centrifuged at 700 rpm for 8 min, and subjected to the same analysis.

Another data set has as its target T2, purified MPO (Homo sapiens, UniProt P05164).
T2 construct: purchased Calbiochem
In words: Output of LGTR and luminol in vitro with purified MPO and H2O2. It counts as biochemical. Conditions: for light output: purified MPO mixed with 100% serum rather than MEBSS. From the text:
To analyze the output of LGTR and luminol in vitro, […] of each were mixed with purified MPO (5 mU) and vehicle (MEBSS).

The conditions of data set [4]: systemic administration; cited from earlier work.
In data set [5] the test system is MPO activity. Conditions: mouse, in vivo.
Experimental: GzB→Tax mice were monitored for tumorigenesis on ears, limbs and tails by visual examination and palpation, weekly, for 200-300 days after birth. Ten mice with visible tumors at various sizes (1-8 mm in diameter) and locations were administered luminol (200 mg/kg BW, i.p.) and imaged (exposure time, 300 sec; binning, 4; FOV, 10 cm) under anesthesia (isoflurane inhalation). Tumors were excised, fixed in paraformaldehyde (4%), paraffin-embedded, sectioned (5 μm) and stained with H&E or immuno-stained for MPO (see below).
We next used BLI to examine tumor-bearing GzB→Tax mice after intraperitoneal administration of luminol (200 mg/kg BW, i.p., FIG. 5 c-g).
Data set [6] has as its system MPO activity. The note with it: mouse, in vivo. This is another data set of the same source.
Experimental: To induce acute skin inflammation (Fretland, D. J. et al. Inflammation 19, 333-346, 1995), PMA (100 μM, 20 μL) or vehicle (ethanol) were applied topically (left and right ear, respectively) on the inner and outer surface of the earlobe of MPO^−/− (n=5) or control (n=5) mice. Twenty-four and 48 hours later, luminol was administered (200 mg/kg BW, i.p.) and 10 min later mice were imaged (exposure time, 180 see; binning, 4; FOV, 7.5 cm) under anesthesia (isoflurane inhalation). ROI's were manually selected over the left and right ear lobes (PMA-treated and untreated, respectively) and over the central part of the skull (background). Data were expressed as (PMA—background)/(vehicle—background)±s.e.m.
Topical application of PMA onto the earlobes of mice induces acute dermatitis, manifested by local swelling, erythema and infiltration of neutrophils. […] We therefore used this model for assessment of MPO activity by luminol-BLI in both MPO^+/+ and MPO^−/− mice. Acute dermatitis was generated by topical application of PMA on the left ear lobe of MPO^+/+ or MPO^−/− mice (shown are three representative mice for each genetic background, n=5 for each). Twenty-four hours after topical application of PMA, mice were imaged (FIG. 3a) following the administration of luminol (200 mg/kg BW, i.p.).
For data set [7], the system named is MPO activity. Conditions: 24 h after DNFB, luminol 200 mg/kg BW i.p.
Experimental: Briefly, murine anti-DNP IgE (20 μg in 100 μl, Sigma-Aldrich) was injected intravenously into 13 MPO^+/+ and 9 MPO^−/− mice. One control mouse of each genetic MPO background was injected with vehicle (saline) only. Twenty-four hours later, all left ears were painted with DNFB (0.2% in acetone:olive oil, 1:3) and all right ears were painted with vehicle (acetone:olive oil, 1:3). On the next day, all mice were imaged following luminol administration (200 mg/kg BW, i.p.). Mice were euthanized immediately after imaging and histological specimens were prepared from both left and right ears by fixation with paraformaldehyde (4%), de-calcification (24 h in 14% EDTA), paraffin-embedding, sectioning (5 μm) and staining with H&E. For each condition, eosinophils were counted in 5 HPF (magnification ×400).
Eosinophil-dominant recruitment and activation was induced by passive immunization against DNP followed by topical challenge with DNFB (Ray, M., et al., J. Immunol. 131, 1096-1102, 1983) in both MPO+/+ control as well as MPO^−/− mice. […] Acute allergic dermatitis was induced by passive immunization with anti-DNP IgE and topical challenge with DNFB on the left ear lobes of MPO^+/+ (n=14) and MPO^−/− (n=10) mice. Right ears served as vehicle controls and mice challenged with DNFB, but not anti-DNP IgE, served as negative controls. […]
The target of data set [8] is T1, MPO.
Experimental: Matrigel was used to immobilize human MPO and/or GOX (that produces H2O2) in vivo (Chen, J. W., et al., Radiology 240, 473-481, 2006). Briefly, GOX (30 U), MPO (20 U), vehicle (PBS) or GOX+MPO (30 and 20 U, respectively) were added to Matrigel (200 μL) at 4° C. The four different mixtures were injected subcutaneously into different locations on the back of NCr nu/nu mice. Thirty minutes later, mice were anesthetized (isoflurane inhalation), administered luminol (200 mg/kg BW, i.p.) and imaged sequentially (exposure time, 60 sec; binning, 4; FOV, 7.5 cm) every 5 minutes up to one hour. Regions of interest (ROI) were manually selected over the four implants and total photon emissions from each implant were plotted as a function of time.
We next determined the biochemical requirements and pharmacokinetics of luminol-BL in an intact animal and whether MPO activity could be imaged in vivo. […] We embedded GOX (30 U), MPO (20 U); MPO+GOX (same concentrations) or vehicle (PBS) in Matrigel solution and established subcutaneous implants of these mixtures on the backs of NCR nu/nu mice (n=3, FIG. 2a).
Photon fluxes were determined from ROI's, manually drawn over the different implants and plotted as a function of time.
The test system of data set [9] is MPO activity. Conditions: mouse, in vivo. This is another data set of the same source.
Experimental: MPO^−/− (n=5) or control MPO^+/+ (n=5) mice were briefly anaesthetized (isoflurane inhalation) and LPS (20 μg in 20 μL PBS) or vehicle (PBS, 20 μL) were injected into the left or right ankles, respectively, using a 30-gauge needle. Mice were administered luminol (as above) and imaged immediately after LPS administration under anesthesia (isoflurane inhalation), as well as 1, 2, 3, 4 and 5 days later (exposure time, 180 sec; binning, 4; FOV, 10 cm). ROIs were manually selected over the left and right feet (LPS-treated and untreated, respectively) and over the proximal part of the tail (background). Data were expressed as (LPS—background)/(vehicle—background)±s.e.m.
We next imaged MPO activity in a focal arthritis model. […] LPS was injected to the joints of the left lower limbs of wild type MPO^+/+ (FIG. 3b, left panel, n=5) or MPO^−/− mice (FIG. 3b, right panel, n=5). Vehicle (PBS) was injected into the joints of the right lower limbs. At t=0 (before LPS injection), 24, 48, 72, 96 and 120 h, luminol was administered (200 mg/kg BW, i.p.) and mice were imaged.
Setting [10] is: whole blood 1 μL, luminol 100 μM, PMA 5 μM.

T1 sequence (P05164 279-745 limits assumed): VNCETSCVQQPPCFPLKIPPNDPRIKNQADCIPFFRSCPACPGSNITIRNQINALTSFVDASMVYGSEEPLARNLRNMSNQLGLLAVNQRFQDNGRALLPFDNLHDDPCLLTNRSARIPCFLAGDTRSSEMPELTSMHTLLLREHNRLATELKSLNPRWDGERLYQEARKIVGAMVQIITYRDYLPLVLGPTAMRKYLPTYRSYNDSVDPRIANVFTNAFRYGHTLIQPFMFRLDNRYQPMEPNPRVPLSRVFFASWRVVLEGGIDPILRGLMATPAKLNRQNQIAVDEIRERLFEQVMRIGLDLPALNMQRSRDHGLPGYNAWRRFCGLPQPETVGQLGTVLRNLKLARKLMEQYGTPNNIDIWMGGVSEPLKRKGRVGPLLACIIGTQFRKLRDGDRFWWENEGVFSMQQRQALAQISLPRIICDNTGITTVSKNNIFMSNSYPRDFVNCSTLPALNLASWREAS
T1 sequence (P05164 165-273 limits assumed): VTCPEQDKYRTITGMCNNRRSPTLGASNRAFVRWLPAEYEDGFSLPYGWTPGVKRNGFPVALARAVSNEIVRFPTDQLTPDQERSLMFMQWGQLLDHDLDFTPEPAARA
T2 sequence (P05164 279-745 limits assumed): as the sequence (P05164 279-745 limits assumed) above
T2 sequence (P05164 165-273 limits assumed): as the sequence (P05164 165-273 limits assumed) above

Regarding `c1ccc2c(c1)[I+]c1ccccc1-2` [DPI, diphenyleneiodonium], the “effect on PMA-induced BL” value in [1] (DPI 10 μM, MPO+/+ mouse blood, imaged 20 min after PMA 5 μM) was “complete abrogation”.
`CC1(C)C(=CC=C2CCCC(C=CC3=[N+](CCCCS(=O)(=O)[O-])c4ccc5ccccc5c4C3(C)C)=C2Cl)N(CCCCS(=O)(=O)[O-])c2ccc3ccccc3c21.[Na+]` [IRD]: the “stability on exposure to MPO over time” value at MPO [2] is reported as “loss of IRD molecular integrity over time”.
`CN=C(N)NCCC[C@H](N)C(=O)O.O=C(O)CC(O)(CC(=O)O)C(=O)O` [L-NMMA, L-N^G-monomethyl arginine citrate]: the “effect on luminol-dependent BL” value in data set [1] (L-NMMA 1 mM, MPO+/+ mouse blood, imaged 20 min after PMA 5 μM) was “did not cause a significant reduction”.
For the compound `O=C(CCCCCNS(=O)(=O)c1ccc(C2=c3cc4c5c(c3Oc3c2cc2c6c3CCCN6CCC2)CCC[N+]=5CCC4)c(S(=O)(=O)[O-])c1)NCC(=O)Nc1cccc2c(=O)[nH][nH]c(=O)c12` [LGTR], the “BL after induction of acute contact hypersensitivity” value in the data set on MPO activity [3] (MPO+/+ mice, 1 mM in DMSO topical, 45 μl per ear) is given as “substantial LGTR-BL”. Further, in the data set on MPO activity [3] (filters >590 and 650 nm, topical 1 mM in DMSO), the “photon flux compared with luminol” value is 3-4 fold. The “signal over the luminol signals” value in the data set with human blood (early time points in whole blood) is reported as “greater than 75%”. Also, in the data set on human blood (human whole blood, 12 min post PMA stimulation), the “fraction of signal that was red (>590 nm)” value was “greater than 75%”. The “percent of the signal greater than 590 nm (red spectrum)” value on purified MPO (purified MPO 5 mU in MEBSS buffer, H2O2 50 μM) is given as approximately 75%. Further, on purified MPO (purified MPO in MEBSS buffer), the “brightness compared with luminol” value was “brighter than luminol”. Also, the light output result at purified MPO was “no light output”.
`Nc1cccc2c(=O)[nH][nH]c(=O)c12` [luminol, 5-amino-2,3-dihydro-1,4-phthalazine-dione]: in data set [4], the absorption and excretion entry is “well absorbed and rapidly excreted”; the toxicity entry was “relatively non-toxic”. Moreover, in the data set on MPO activity [5], the “localization of luminol-BL in tumor-bearing mice” value is “colocalized with foci of tumorigenesis”. In addition, in the data set on MPO activity [6], the “BL of PMA-treated ears over vehicle-treated ears” value amounted to 1.9±0.5 fold and the “background-normalized BL of PMA-treated ears over vehicle-treated ears” value worked out at 13.1±0.2 fold. In [1] (few thousand phagocytes in 1 μL whole blood), the signal-to-background ratio is more than 30. Moreover, the “luminol-BL with whole blood of MPO−/− mice” value in [1] (luminol 100 μM, PMA 5 μM, 0-55 min) was “undetectable”. In data set [1] (setting [10]), the “peak BL over background values” is listed as 30-40 fold and the “time of BL peak post stimulation” value lay within 20 to 25 min. In addition, in the data set on MPO activity [7] (MPO+/+ mice), the “luminol-BL signal from inflamed ears” value was “substantial luminol-BL”. In the data set on MPO activity [7] (MPO−/− mice), the “luminol-BL signal from inflamed ears” value is “no significant luminol-BL signal”. Also, the photon output compared entry with human blood (human whole blood following PMA stimulation) was “exceeded LGTR”. In addition, the light output result on purified MPO was “no light output”. Moreover, the “signal-to-background ratio for luminol-BLI” value on MPO [8] (MPO+GOX Matrigel implants in vivo) is “exceeded 3000”. Also, the “absorption upon i.p. injection” value at MPO [8] (luminol 200 mg/kg BW i.p.) is given as “rapidly absorbed”. Further, at MPO [8] (luminol 200 mg/kg BW i.p., MPO+GOX implant, NCr nu/nu mice), the “time to maximum BL after injection” value came to 10 min. Moreover, in the data set on MPO activity [9], the “BL signal over background” value was 10 to 15 fold; the “luminol-BL from LPS- or vehicle-treated joints” value is on record as “negligible”; the “peak BL emission, fold over vehicle-treated foot” value lay within 25 to 30 fold.
As for `NCC(=O)Nc1cccc2c(=O)[nH][nH]c(=O)c12` [luminol-glycine, 2-Amino-N-(1,4-dioxo-1,2,3,4-tetrahydrophthalazine-5-yl)acetamide], on purified MPO (control compound, purified MPO), the signal generated entry is recorded as “no signal”.

Values taken from US8652442B2, “Bioluminescence imaging of myeloperoxidase activity in vivo, methods, compositions and apparatuses therefor” (Washington University, priority 2008, dated 2014).
